Assay results from patent US20090023666A1, “Modulators of Hypoxia Inducible Factor-1 and Related Uses” (priority 2006, published 2009).

What was measured:
[1] = tested on: A549; assay: cells; assay type: cell-based; conditions: Homo sapiens, A549, read-out: APA (A549) IC50
Protocol: (§1) FIG. 8 is a graph depicting the mRNA levels of α-1 and α-3 isoforms quantitated by real time RT-PCR (TaqMan) using fluorescent labeled TaqMan probes. Anti-proliferation (IC50 values) activity of BNC4 on indicated cell lines was determined by MTS assay. Total alpha levels (al+a3) were plotted against (1/IC50) X100 values.

[2] = tested on: Caki-1 (CAKI); assay: cells; assay type: cell-based; conditions: Homo sapiens, CAKI-1, read-out: APA (Caki-1) IC50
Protocol: as §1

[3] = target: Na-K-ATPase; assay: Na-K-ATPase enzyme assay (inorganic phosphate liberated from ATP), pig brain; assay type: biochemical; conditions: Pig brain; read-out: ATPase Inh, IC50 Pig brain
Protocol: (§2) Compounds were tested for their activity on Na-K-ATPase enzyme in an in vitro enzyme assay. The ATPase activity was assayed as the amount of inorganic phosphate liberated from ATP by Dog Kidney or Porcine cerebral cortex Na-K-ATPase.

[4] = tested on: 5-aminoimidazole-4-carbox-amide riboside (AICAR); assay: AICAR-RA reporter assay; assay type: cell-based; conditions: indicative of the inhibition of glucose metabolism, read-out: AICAR-RA ED50
[5] = tested on: Panc-1 (PANC); assay: Anti-proliferative activity (APA), Panc-1; assay type: cell-based; conditions: Homo sapiens, PANC-1, read-out: APA (Panc-1) IC50
Protocol: as §1

[6] = target: T1, Na-K-ATPase (Canis lupus familiaris, UniProt P50997); assay: Na-K-ATPase enzyme assay (inorganic phosphate liberated from ATP), dog kidney; assay type: biochemical
T1 construct: liberated from ATP by Dog Kidney or Porcine cerebral cortex Na-K-ATPase; from tissue; host or cells: dog kidney
Protocol: as §2

[7] = in vivo; cited from earlier work
[8] = tested on: A549 sentinel line; assay: Hypoxic stress response induced by cytotoxic agents in A549 sentinel line; assay type: cell-based; conditions: chemotherapeutic agent alone
Text: FIGS. 7A-7E are graphs depicting the stress response of A549 Sentinel Line induced by treatment with Gemcitabine (FIG. 7A) or Gemcitabine in the presence of indicated compound (FIG. 7B-7D). Untreated (control) sample is shown in shadow. […] Similar results can be achieved for other chemotherapeutic agents which induce hypoxic stress, such as paclitaxel, carboplatin, and mitoxantrone.
Similar results were obtained with carboplatin (not shown).

[9] = tested on: Panc-1 tumors; assay: In vivo activity against Panc-1 human pancreatic xenograft; parameters: species or system nude mice; conditions: Gemcitabine 40 mg/kg q3d × 4
Protocol: Panc-1 tumors were injected subcutaneously (sc) into the flanks of male nude mice. After the tumors reached 60 mg in size, osmotic pumps (model 2002, Alzet Inc., flow rate 0.5 μl/hr) containing 15 mg/ml of BP244 were implanted sc on the opposite sides of the mice. The control animals received pumps containing vehicle (10% captisol, Cyclex Inc.). The mice treated with standard chemotherapy agent received intra-peritoneal injections of Gemcitabine at 40 mg/kg every 3 days for 4 treatments (q3d×4). The experiment was terminated when the control group tumor size reached an average of about 1 gram. Upon termination, the mice were weighed, sacrificed and their tumors excised. The tumors were weighed and the mean tumor weight per group was calculated.
A titration experiment was first performed on BP244 to determine its minimum effective dose against Panc-1 human pancreatic xenograft in nude mice. BP244 (sc, osmotic pumps) was first tested at 15, 10 and 5 mg/ml using Alzet pumps as in previous experiments. Gemcitabine (40 mg/kg; q3d×4, i.p.) was also included in the experiment as a comparison. […]

SMILES	IC50 [1]	IC50 [2]	IC50 [3]	EC50 [4]	other results
CN(C)CCN=C1CC[C@@]2(C)C(CCC3C2CC[C@]2(C)[C@@H](c4ccc(=O)oc4)CC[C@]32O)C1 (some centres unmarked)	25 nM	109 nM	171 nM		
CC12CCC(OC(=O)C3CCNCC3)C=C1CCC1C2CCC2(C)C(c3ccc(=O)oc3)CCC12O (centres unmarked)	20 nM	120 nM	136 nM	101 nM	
CC(C)(C)NC(=O)OC1C=C2CCC3C(CCC4(C)C(c5ccc(=O)oc5)CCC34O)C2(C)CC1 (centres unmarked)	45 nM	276 nM	207 nM	104 nM	
COC1O[C@@H]2[C@@H](N)[C@H](C)OC(C[C@@H]3C=C4CCC5C(CC[C@]6(C)[C@@H](c7ccc(=O)oc7)CC[C@]56O)[C@@]4(C)CC3)[C@@H]2O1 (some centres unmarked)	3 nM	12 nM	206 nM		IC50 [5]: 11 nM
C=CCON=C1C=C2CCC3C(CCC4(C)C(c5ccc(=O)oc5)CCC34O)C2(C)CC1 (centres unmarked)	9 nM	40 nM	116 nM		
CCCNC(=O)OC1C=C2CCC3C(CCC4(C)C(c5ccc(=O)oc5)CCC34O)C2(C)CC1 (centres unmarked)	19 nM	67 nM	198 nM	102 nM	
C[C@@H]1CC(O[C@@H]2C=C3CCC4C(CC[C@]5(C)[C@@H](c6ccc(=O)oc6)CC[C@]45O)[C@@]3(C)CC2)[C@H](O)[C@H](O)[C@@H]1O (some centres unmarked)	9 nM	24 nM	129 nM		
CCCCNC(=O)OC1C=C2CCC3C(CCC4(C)C(c5ccc(=O)oc5)CCC34O)C2(C)CC1 (centres unmarked)	24 nM	46 nM	206 nM	68 nM	
CC(=O)N1CCC(C(=O)O[C@@H]2C=C3CCC4C(CC[C@]5(C)[C@@H](c6ccc(=O)oc6)CC[C@]45O)[C@@]3(C)CC2)CC1 (some centres unmarked)	15 nM	342 nM	396 nM	133 nM	IC50 [6]: 270 nM
C[C@@H]1O[C@@H](O[C@H]2C[C@@H](O)[C@]3(CO)[C@H]4[C@H](O)C[C@]5(C)[C@@H](C6=CC(=O)OC6)CC[C@]5(O)[C@@H]4CC[C@]3(O)C2)[C@H](O)[C@H](O)[C@H]1O [BNC1, ouabain]					max. plasma concentration [7]: about 0.03 μg/mL
C[C@]12CCC(N)C=C1CCC1C2CC[C@]2(C)[C@@H](c3ccc(=O)oc3)CC[C@]12O (some centres unmarked)	5 nM	72 nM	93 nM		
C[C@@H]1OC(O[C@@H]2C=C3CCC4C(CC[C@]5(C)[C@@H](c6ccc(=O)oc6)CC[C@]45O)[C@@]3(C)CC2)[C@H](O)[C@H](O)[C@H]1N (some centres unmarked)	7 nM	56 nM	540 nM		IC50 [5]: 21 nM
CN(C)/N=C1/C=C2CCC3C(CC[C@]4(C)[C@@H](c5ccc(=O)oc5)CC[C@]34O)[C@@]2(C)CC1 (some centres unmarked)	23 nM	118 nM	196 nM	102 nM	
CC12CCC(=NOCCN3CCCCC3)C=C1CCC1C2CCC2(C)C(c3ccc(=O)oc3)CCC12O (centres unmarked)	7 nM	27 nM	164 nM		IC50 [5]: 16 nM
CC12CCC(OC(=O)c3ccc(C#N)cc3)C=C1CCC1C2CCC2(C)C(c3ccc(=O)oc3)CCC12O (centres unmarked)	55 nM	84 nM	453 nM	130 nM	
Nc1ccn([C@@H]2O[C@H](CO)[C@@H](O)C2(F)F)c(=O)n1 [Gemcitabine, reference compound]					hypoxic response visualized by A549 sentinel line [8]: further induce hypoxic response; % TGI (d24) [9]: 65%; % Wt Change (d24) [9]: 2.60%; Av. Tumor Weight [9]: 414.3 mg
CCNC(=O)O[C@@H]1C=C2CCC3C(CC[C@]4(C)[C@@H](c5ccc(=O)oc5)CC[C@]34O)[C@@]2(C)CC1 (some centres unmarked)	35 nM	82 nM	210 nM	75 nM	IC50 [6]: 220 nM
CC12CCC(OC(=O)Nc3ccc(F)cc3)C=C1CCC1C2CCC2(C)C(c3ccc(=O)oc3)CCC12O (centres unmarked)	23 nM	142 nM	277 nM	100 nM	
CN(C)CCON=C1C=C2CCC3C(CCC4(C)C(c5ccc(=O)oc5)CCC34O)C2(C)CC1 (centres unmarked)	2 nM	24 nM	85 nM		
CCON=C1C=C2CCC3C(CCC4(C)C(c5ccc(=O)oc5)CCC34O)C2(C)CC1 (centres unmarked)	14 nM	19 nM	93 nM		
C[C@]12CC[C@H](OC(=O)C3CCNC3)C=C1CCC1C2CC[C@]2(C)[C@@H](c3ccc(=O)oc3)CC[C@]12O (some centres unmarked)	48 nM	112 nM	480 nM	210 nM	IC50 [6]: 299 nM
C[C@]12CCC(NCCN3CCOCC3)CC1CCC1C2CC[C@]2(C)[C@@H](c3ccc(=O)oc3)CC[C@]12O (some centres unmarked)	101 nM	276 nM	356 nM		
COC1O[C@@H]2C(=O)[C@H](C)OC(O[C@@H]3C=C4CCC5C(CC[C@]6(C)[C@@H](c7ccc(=O)oc7)CC[C@]56O)[C@@]4(C)CC3)[C@@H]2O1 (some centres unmarked)		26 nM	169 nM		
